The structures appear in SMILES notation. Where a name gives a salt, the structure may show the parent alone.

A short description of the data set: in vitro. The note with it: human, hek293t cells.
In the case of `O=C(CCl)N(CC=Cc1ccccc1)c1ccc2c(c1)OCCO2` [4-G19, 2-chloro-N-(2,3-dihydro-1,4-benzodioxin-6-yl)-N-(3-phenylprop-2-en-1-yl)acetamide], the viability at 48 h, 25 µM amounted to 0.292%.

Take `COc1ccc(C2=NN(C(=O)CCl)C(c3cccc(C)c3)C2)cc1` (centres unmarked) [4-G20, 2-chloro-1-[3-(4-methoxyphenyl)-5-(3-methylphenyl)-4,5-dihydro-1H-pyrazol-1-yl]ethan-1-one]: the viability at 48 h, 25 µM is -0.0034%. Next, `O=C(CCl)NCCSc1ccccc1` [4-G21, 2-chloro-N-[2-(phenylsulfanyl)ethyl]acetamide]: 1.68%.

For the molecule `CC(=O)Nc1ccc(C2=NN(C(=O)CCl)C(c3ccco3)C2)cc1` (centres unmarked) [4-G22, N-{4-[1-(2-chloroacetyl)-5-(furan-2-yl)-4,5-dihydro-1H-pyrazol-3-yl]phenyl}acetamide], the viability at 48 h, 25 µM turned out to be 0.156%. As for `CC(C)Cc1ccc(C(C)NC(=O)CCl)cc1` (centres unmarked) [4-H03, 2-chloro-N-{1-[4-(2-methylpropyl)phenyl]ethyl}acetamide], the figure is 0.63%; as for `CN(c1ccccc1)S(=O)(=O)c1cccc(NC(=O)CCl)c1` [4-H04, 2-chloro-N-{3-[methyl(phenyl)sulfamoyl]phenyl}acetamide], 0.751%; as for `O=C(CCl)NCCC1=CCCCC1` [4-H05, 2-chloro-N-[2-(cyclohex-1-en-1-yl)ethyl]acetamide], 20.9%.

Turning to `O=C(CCl)Nc1ccc(S(=O)(=O)N2CCCCC2)cc1` [4-H06, 2-chloro-N-[4-(piperidine-1-sulfonyl)phenyl]acetamide], the viability at 48 h, 25 µM was 0.963%. As for `O=C(CCl)N(Cc1ccc(Cl)cc1)C12CC3CC(CC(C3)C1)C2` [4-H07, N-(adamantan-1-yl)-2-chloro-N-[(4-chlorophenyl)methyl]acetamide], the figure is -0.34%. Regarding `O=C(CCl)Nc1nc2ccc([N+](=O)[O-])cc2s1` [4-H08, 2-chloro-N-(6-nitro-1,3-benzothiazol-2-yl)acetamide], the viability at 48 h, 25 µM is 0.244%. Take `Cc1ccc(C)c(Sc2ccc(NC(=O)CCl)cc2)c1` [4-H09, 2-chloro-N-{4-[(2,5-dimethylphenyl)sulfanyl]phenyl}acetamide]: the viability at 48 h, 25 µM was -0.157%. As for `CSc1cccc(NC(=O)CCl)c1` [4-H10, 2-chloro-N-[3-(methylsulfanyl)phenyl]acetamide], the figure is 1.13%; as for `CC(Cl)C(=O)Nc1cc(C(C)(C)C)nn1-c1ccccc1` (centres unmarked) [4-H11, N-(3-tert-butyl-1-phenyl-1H-pyrazol-5-yl)-2-chloropropanamide], 93%. Next, `COc1ccc(OC)c(-c2csc(NC(=O)CCl)n2)c1` [4-H12, 2-chloro-N-[4-(2,5-dimethoxyphenyl)-1,3-thiazol-2-yl]acetamide]: 1.27%.

With `CC(Cl)C(=O)Nc1sc(-c2ccccc2)cc1C(N)=O` (centres unmarked) [4-H13, 2-(2-chloropropanamido)-5-phenylthiophene-3-carboxamide], the viability at 48 h, 25 µM was found to be 80.6%. As for `O=C(CCl)N1CCN(CCOc2ccccc2)CC1` [4-H14, 2-chloro-1-[4-(2-phenoxyethyl)piperazin-1-yl]ethan-1-one hydrochloride], the figure is 1.67%; as for `Cc1cc(S(=O)(=O)N(C)C)cc(NC(=O)CCl)c1C` [4-H15, 2-chloro-N-[5-(dimethylsulfamoyl)-2,3-dimethylphenyl]acetamide], 1.33%.

`Cc1ccc(C(NC(=O)CCl)c2cccs2)cc1` (centres unmarked) [4-H16, 2-chloro-N-[(4-methylphenyl)(thiophen-2-yl)methyl]acetamide]: the viability at 48 h, 25 µM turned out to be 0.348%. For `O=C(CCl)NCCSc1ccc(Cl)cc1` [4-H17, 2-chloro-N-{2-[(4-chlorophenyl)sulfanyl]ethyl}acetamide], the viability at 48 h, 25 µM worked out at 0.813%. For `O=C(CCl)NCC1CN(Cc2ccccc2)CCO1` (centres unmarked) [4-H18, N-[(4-benzylmorpholin-2-yl)methyl]-2-chloroacetamide], the viability at 48 h, 25 µM is 87.2%. Next, `O=C(CCl)N1CCC(OCc2ccccc2)CC1` [4-H19, 1-[4-(benzyloxy)piperidin-1-yl]-2-chloroethan-1-one]: 0.757%; `Cn1ccnc1C(NC(=O)CCl)c1ccccc1` (centres unmarked) [4-H20, 2-chloro-N-[(1-methyl-1H-imidazol-2-yl)(phenyl)methyl]acetamide]: 44.4%; `Cc1ccc(CNC(=O)c2ccccc2NC(=O)CCl)cc1` [4-H21, 2-(2-chloroacetamido)-N-[(4-methylphenyl)methyl]benzamide]: 105%. As for `O=C(CCl)NOCc1ccccc1` [4-H22, N-(benzyloxy)-2-chloroacetamide], the figure is 63.3%.

In the case of `Cc1ccc(Sc2ccc(NC(=O)CCl)cc2)c(C)c1` [4-I03, 2-chloro-N-{4-[(2,4-dimethylphenyl)sulfanyl]phenyl}acetamide], the viability at 48 h, 25 µM was 0.0415%. Next, `COc1cc(NC(=O)C(C)Cl)cc(OC)c1` (centres unmarked) [4-I04, 2-chloro-N-(3,5-dimethoxyphenyl)propanamide]: 81.7%; `CC(C)c1ccc(C(C)NC(=O)CCl)cc1` (centres unmarked) [4-I05, 2-chloro-N-{1-[4-(propan-2-yl)phenyl]ethyl}acetamide]: 1.47%.

As for `Cc1ccc(S(=O)(=O)N(C)C)cc1NC(=O)C(C)Cl` (centres unmarked) [4-I06, 2-chloro-N-[5-(dimethylsulfamoyl)-2-methylphenyl]propanamide], the viability at 48 h, 25 µM stood at 69.7%. As for `O=C(CCl)Nc1ccc(F)cc1[N+](=O)[O-]` [4-I07, 2-chloro-N-(4-fluoro-2-nitrophenyl)acetamide], the figure is 0.642%; as for `CCc1ccccc1NC(=O)CNC(=O)CCl` [4-I08, 2-chloro-N-{[(2-ethylphenyl)carbamoyl]methyl}acetamide], 0.8%. Consider `O=C(CCl)Nc1ccc(Cl)c(C(F)(F)F)c1` [4-I09, 2-chloro-N-[4-chloro-3-(trifluoromethyl)phenyl]acetamide], for which the viability at 48 h, 25 µM came to 0.299%.

As to `CC(Cl)C(=O)NCC1CCCCC1` (centres unmarked) [4-I10, 2-chloro-N-(cyclohexylmethyl)propanamide], the viability at 48 h, 25 µM is 90.9%. As for `O=C(CCl)NCC1(c2ccc3c(c2)OCCO3)CCCC1` [4-I11, 2-chloro-N-{[1-(2,3-dihydro-1,4-benzodioxin-6-yl)cyclopentyl]methyl}acetamide], the figure is 0.867%; as for `CC(Cl)C(=O)Nc1cc2c(cc1Cl)C(=O)c1ccccc1C2=O` (centres unmarked) [4-I12, 2-chloro-N-(3-chloro-9,10-dioxo-9,10-dihydroanthracen-2-yl)propanamide], 79.4%.

In the case of `O=C(CCl)N(Cc1ccc(F)cc1)C1CCCCC1` [4-I13, 2-chloro-N-cyclohexyl-N-[(4-fluorophenyl)methyl]acetamide], the viability at 48 h, 25 µM was 0.726%. On to `COc1ccc(NC(=O)C(C)Cl)cc1Cl` (centres unmarked) [4-I14, 2-chloro-N-(3-chloro-4-methoxyphenyl)propanamide], for which the viability at 48 h, 25 µM is 90.7%. As for `O=C(CCl)Nc1cc(C2CC2)nn1-c1ccccc1` [4-I15, 2-chloro-N-(3-cyclopropyl-1-phenyl-1H-pyrazol-5-yl)acetamide], the figure is 1.44%; as for `CNC(=O)CC(NC(=O)CCl)c1ccc(F)cc1F` (centres unmarked) [4-I16, 3-(2-chloroacetamido)-3-(2,4-difluorophenyl)-N-methylpropanamide], 18.5%.

On to `O=C(CCl)NC(=O)Nc1ccccc1` [4-I17, 3-(2-chloroacetyl)-1-phenylurea], for which the viability at 48 h, 25 µM was found to be 64%. As for `CC(Cl)C(=O)Nc1ccc([N+](=O)[O-])cc1` (centres unmarked) [4-I18, 2-chloro-N-(4-nitrophenyl)propanamide], the figure is 86.7%; as for `CCN(CC(=O)NC1CCS(=O)(=O)C1)C(=O)CCl` (centres unmarked) [4-I19, 2-chloro-N-{[(1,1-dioxo-1lambda6-thiolan-3-yl)carbamoyl]methyl}-N-ethylacetamide], 1.33%. Next, `O=C(CCl)N1N=C(c2ccccc2)CC1c1ccccc1` (centres unmarked) [4-I20, 2-chloro-1-(3,5-diphenyl-4,5-dihydro-1H-pyrazol-1-yl)ethan-1-one]: 0.141%.

Take `COc1ccc(NC(=O)CCl)c([N+](=O)[O-])c1` [4-I21, 2-chloro-N-(4-methoxy-2-nitrophenyl)acetamide]: the viability at 48 h, 25 µM was 35.6%. Regarding `Cc1ccc(C2CC(c3cccs3)=NN2C(=O)CCl)cc1` (centres unmarked) [4-I22, 2-chloro-1-[5-(4-methylphenyl)-3-(thiophen-2-yl)-4,5-dihydro-1H-pyrazol-1-yl]ethan-1-one], the viability at 48 h, 25 µM was found to be 0.369%. As to `O=C(CCl)Nc1cc(C2CCCC2)nn1-c1ccccc1` [4-J03, 2-chloro-N-(3-cyclopentyl-1-phenyl-1H-pyrazol-5-yl)acetamide], the viability at 48 h, 25 µM stood at 0.358%. As for `O=C(CCl)Nc1cc(C(F)(F)F)ccc1Cl` [4-J04, 2-chloro-N-[2-chloro-5-(trifluoromethyl)phenyl]acetamide], the figure is 1.3%; as for `O=C(CCl)Nc1ccccc1SCc1ccccc1` [4-J05, N-[2-(benzylsulfanyl)phenyl]-2-chloroacetamide], 0.437%; as for `O=C(CCl)Nc1ccccc1C(=O)c1ccccc1` [4-J06, N-(2-benzoylphenyl)-2-chloroacetamide], 1.12%. Next, `O=C(CCl)N1CCN(S(=O)(=O)c2ccc([N+](=O)[O-])cc2)CC1` [4-J07, 2-chloro-1-[4-(4-nitrobenzenesulfonyl)piperazin-1-yl]ethan-1-one]: -0.414%; `CN(C)S(=O)(=O)c1cccc(NC(=O)CCl)c1` [4-J08, 2-chloro-N-[3-(dimethylsulfamoyl)phenyl]acetamide]: 0.946%; `O=C(CCl)Nc1ccc(Oc2ccccc2)cc1` [4-J09, 2-chloro-N-(4-phenoxyphenyl)acetamide]: -0.178%.

Take `O=C(CCl)Nc1ccc(OC(F)F)cc1` [4-J10, 2-chloro-N-[4-(difluoromethoxy)phenyl]acetamide]: the viability at 48 h, 25 µM stood at 1.07%. Next, `COc1ccc(C(NC(=O)CCl)c2ccccc2)cc1` (centres unmarked) [4-J11, 2-chloro-N-[(4-methoxyphenyl)(phenyl)methyl]acetamide]: 0.827%.

Source of the values: article PMC11995724, “Antibiotic target discovery by integrated phenotypic and activity-based profiling of electrophilic fragments” (Cell chemical biology, 2025).
